Laboratory results as given in US20180265515A1 (Genentech, Inc., priority 2015, published 2018).

Columns and labels:
[1] = biological target: T1, isolated recombinant JAK1 kinase domain (Homo sapiens, UniProt P23458); assay: JAK1 enzyme assay (Caliper LabChip, Ki); assay type: biochemical; conditions: recombinant JAK1 kinase domain, 25 μM ATP
T1 construct: The activity of the isolated recombinant JAK1 and JAK2 kinase domain was measured
Method in brief: (§1)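 Recombinant JAK1 or JAK2 kinase domain phosphorylating a 5-carboxyfluorescein-labelled JAK3-derived peptide, 30 min at 22° C, stopped with EDTA. Phosphorylated fraction of substrate quantified by Caliper LabChip microfluidic separation. Ki from Morrison tight-binding model corrected for ATP competition (Ki=Ki,app/(1+[ATP]/Km,app)).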

[2] = biological target: T2, isolated recombinant JAK2 kinase domain (Homo sapiens, UniProt O60674); assay: JAK2 enzyme assay (Caliper LabChip, Ki); assay type: biochemical; conditions: 25 μM ATP
T2 construct: The activity of the isolated recombinant JAK1 and JAK2 kinase domain was measured
T2 sequence (O60674 849-1124 limits assumed): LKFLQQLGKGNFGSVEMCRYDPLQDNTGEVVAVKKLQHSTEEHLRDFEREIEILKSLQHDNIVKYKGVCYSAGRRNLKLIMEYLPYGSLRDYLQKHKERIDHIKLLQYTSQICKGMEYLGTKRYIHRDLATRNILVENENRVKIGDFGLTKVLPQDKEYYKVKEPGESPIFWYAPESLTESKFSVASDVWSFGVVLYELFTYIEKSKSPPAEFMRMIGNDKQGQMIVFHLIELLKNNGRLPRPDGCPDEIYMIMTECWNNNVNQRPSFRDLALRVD
Method in brief: as §1

[3] = test system: JAK1-dependent STAT6 phosphorylation downstream of IL-13 stimulation in BEAS-2B human bronchial epithelial cells; assay: JAK1 pathway assay in BEAS-2B cells (IL-13 stimulated STAT6 phosphorylation, MSD); assay type: cell-based; conditions: read-out: P-STAT6 BEAS2B + IL13 IC50
Method in brief: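 BEAS-2B human bronchial epithelial cells, plated the day before in complete growth medium, were preincubated with compound for 1 hr at 37° C (0.2% DMSO final), then stimulated with IL-13 at its EC90 for 15 min. STAT6 phosphorylation in lysates was read by MSD; EC50 was taken as 50% inhibition versus DMSO control.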

T1 sequence (P23458 875-1153 limits assumed): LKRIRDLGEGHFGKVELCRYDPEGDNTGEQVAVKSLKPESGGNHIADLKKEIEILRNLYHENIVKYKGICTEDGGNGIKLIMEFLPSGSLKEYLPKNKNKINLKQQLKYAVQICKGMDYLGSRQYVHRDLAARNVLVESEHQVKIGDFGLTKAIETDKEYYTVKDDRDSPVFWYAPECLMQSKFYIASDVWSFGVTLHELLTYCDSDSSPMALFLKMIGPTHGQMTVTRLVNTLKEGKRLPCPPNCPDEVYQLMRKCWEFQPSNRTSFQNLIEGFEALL

SMILES	Ki [1]	Ki [2]	IC50 [3]
CSc1ccc(OC(F)F)c(-c2nn(CC(=O)N3C[C@@H]4CCN[C@@H]4C3)cc2NC(=O)c2cnn3cccnc23)c1 [Example 56, N-[1-[2-[(3aS,6aS)-2,3,3a,4,6,6a-hexahydro-1H-pyrrolo[2,3-c]pyrrol-5-yl]-2-oxo-ethyl]-3-[2-(difluoromethoxy)-5-methylsulfanyl-phenyl]pyrazol-4-yl]pyrazolo[1,5-a]pyrimidine-3-carboxamide]	0.41 nM	0.48 nM	84 nM
CSc1ccc(OC(F)F)c(-c2nn(CC(=O)N3CCC(N(C)[C@@H]4CCOC4)CC3)cc2NC(=O)c2cnn3cccnc23)c1 [Example 60, N-[3-[2-(difluoromethoxy)-5-methylsulfanyl-phenyl]-1-[2-[4-[methyl-[(3R)-tetrahydrofuran-3-yl]amino]-1-piperidyl]-2-oxo-ethyl]pyrazol-4-yl]pyrazolo[1,5-a]pyrimidine-3-carboxamide]	0.31 nM	0.52 nM	14 nM
CSc1ccc(OC(F)F)c(-c2nn(CC(=O)N3CCC(N4CCN(C)CC4)CC3)cc2NC(=O)c2cnn3cccnc23)c1 [Example 63, N-[3-[2-(difluoromethoxy)-5-(methylsulfanyl)phenyl]-1-[2-[4-(4-methylpiperazin-1-yl)piperidin-1-yl]-2-oxoethyl]-1H-pyrazol-4-yl]pyrazolo[1,5-a]pyrimidine-3-carboxamide]	0.35 nM	0.7 nM	22 nM
CSc1ccc(OC(F)F)c(-c2nn(CC(=O)N3CCC(NCCCC#N)CC3)cc2NC(=O)c2cnn3cccnc23)c1 [Example 64, N-[1-[2-[4-(3-cyanopropylamino)-1-piperidyl]-2-oxo-ethyl]-3-[2-(difluoromethoxy)-5-methylsulfanyl-phenyl]pyrazol-4-yl]pyrazolo[1,5-a]pyrimidine-3-carboxamide]	0.33 nM	0.48 nM	52 nM
CSc1ccc(OC(F)F)c(-c2nn(CC(=O)N3CCN(CC4CCOCC4)CC3)cc2NC(=O)c2cnn3cccnc23)c1 [Example 65, N-[3-[2-(difluoromethoxy)-5-methylsulfanyl-phenyl]-1-[2-oxo-2-[4-(tetrahydropyran-4-ylmethyl)piperazin-1-yl]ethyl]pyrazol-4-yl]pyrazolo[1,5-a]pyrimidine-3-carboxamide]	0.41 nM	0.49 nM	15 nM
CSc1ccc(OC(F)F)c(-c2nn(CC(=O)N3CCC(N(C)CCC(=O)N4CCC4)CC3)cc2NC(=O)c2cnn3cccnc23)c1 [Example 68, N-[1-[2-[4-[[3-(azetidin-1-yl)-3-oxo-propyl]-methyl-amino]-1-piperidyl]-2-oxo-ethyl]-3-[2-(difluoromethoxy)-5-methylsulfanyl-phenyl]pyrazol-4-yl]pyrazolo[1,5-a]pyrimidine-3-carboxamide]	0.47 nM	0.85 nM	300 nM
CSc1ccc(OC(F)F)c(-c2nn(CC(=O)N3CCC(N4CCN(C5COC5)CC4)CC3)cc2NC(=O)c2cnn3cccnc23)c1 [Example 69, N-[3-[2-(difluoromethoxy)-5-methylsulfanyl-phenyl]-1-[2-[4-[4-(oxetan-3-yl)piperazin-1-yl]-1-piperidyl]-2-oxo-ethyl]pyrazol-4-yl]pyrazolo[1,5-a]pyrimidine-3-carboxamide]	0.35 nM	0.71 nM	50 nM
CSc1ccc(OC(F)F)c(-c2nn(CC(=O)N3CCC(N4CCN(C5CCOCC5)CC4)CC3)cc2NC(=O)c2cnn3cccnc23)c1 [Example 70, N-[3-[2-(difluoromethoxy)-5-methylsulfanyl-phenyl]-1-[2-oxo-2-[4-(4-tetrahydropyran-4-ylpiperazin-1-yl)-1-piperidyl]ethyl]pyrazol-4-yl]pyrazolo[1,5-a]pyrimidine-3-carboxamide]	0.42 nM	0.82 nM	38 nM
CSc1ccc(OC(F)F)c(-c2nn(CC(=O)N3CCC(OCC(=O)N4CCN(C)CC4)CC3)cc2NC(=O)c2cnn3cccnc23)c1 [Example 71, N-(3-(2-(difluoromethoxy)-5-(methylthio)phenyl)-1-(2-(4-(2-(4-methylpiperazin-1-yl)-2-oxoethoxy)piperidin-1-yl)-2-oxoethyl)-1H-pyrazol-4-yl)pyrazolo[1,5-a]pyrimidine-3-carboxamide]	0.59 nM	1.1 nM	83 nM

Compounds with a lower Ki [1], results first:

Ki [1]	Ki [2]	SMILES	IC50 [3]
0.29 nM	0.44 nM	CNC(=O)[C@@H]1CCCN1C1CCN(C(=O)Cn2cc(NC(=O)c3cnn4cccnc34)c(-c3cc(SC)ccc3OC(F)F)n2)CC1 [Example 52, N-[3-[2-(difluoromethoxy)-5-methylsulfanyl-phenyl]-1-[2-[4-[(2S)-2-(methylcarbamoyl)pyrrolidin-1-yl]-1-piperidyl]-2-oxo-ethyl]pyrazol-4-yl]pyrazolo[1,5-a]pyrimidine-3-carboxamide]	43 nM
0.27 nM	0.32 nM	CSc1ccc(OC(F)F)c(-c2nn(CC(=O)N3CCN(C4CCOCC4)CC3)cc2NC(=O)c2cnn3cccnc23)c1 [Example 53, N-[3-[2-(difluoromethoxy)-5-methylsulfanyl-phenyl]-1-[2-oxo-2-(4-tetrahydropyran-4-ylpiperazin-1-yl)ethyl]pyrazol-4-yl]pyrazolo[1,5-a]pyrimidine-3-carboxamide]	12 nM
0.23 nM	0.31 nM	CSc1ccc(OC(F)F)c(-c2nn(CC(=O)N3CCN(C4CCOC4)CC3)cc2NC(=O)c2cnn3cccnc23)c1 (stereo not drawn) [Example 54, N-[3-[2-(difluoromethoxy)-5-methylsulfanyl-phenyl]-1-[2-oxo-2-(4-tetrahydrofuran-3-ylpiperazin-1-yl)ethyl]pyrazol-4-yl]pyrazolo[1,5-a]pyrimidine-3-carboxamide]	12 nM
0.27 nM	0.52 nM	CSc1ccc(OC(F)F)c(-c2nn(CC(=O)N3CCC(N4CCC[C@H](C#N)C4)CC3)cc2NC(=O)c2cnn3cccnc23)c1 [Example 55, N-[1-(2-[4-[(3 S)-3-cyanopiperidin-1-yl]piperidin-1-yl]-2-oxoethyl)-3-[2-(difluoromethoxy)-5-(methylsulfanyl)phenyl]-1H-pyrazol-4-yl]pyrazolo[1,5-a]pyrimidine-3-carboxamide]	11 nM
0.26 nM	0.43 nM	CSc1ccc(OC(F)F)c(-c2nn(CC(=O)N3CCC(N4CCOC[C@H]4C)CC3)cc2NC(=O)c2cnn3cccnc23)c1 [Example 57, N-[3-[2-(difluoromethoxy)-5-methylsulfanyl-phenyl]-1-[2-[4-[(3R)-3-methylmorpholin-4-yl]-1-piperidyl]-2-oxo-ethyl]pyrazol-4-yl]pyrazolo[1,5-a]pyrimidine-3-carboxamide]	18 nM
0.2 nM	0.33 nM	CSc1ccc(OC(F)F)c(-c2nn(CC(=O)N3CCC(N4CCC[C@@H](C#N)C4)CC3)cc2NC(=O)c2cnn3cccnc23)c1 [Example 58, N-[1-(2-[4-[(3R)-3-cyanopiperidin-1-yl]piperidin-1-yl]-2-oxoethyl)-3-[2-(difluoromethoxy)-5-(methylsulfanyl)phenyl]-1H-pyrazol-4-yl]pyrazolo[1,5-a]pyrimidine-3-carboxamide]	13 nM
0.2 nM	0.34 nM	CSc1ccc(OC(F)F)c(-c2nn(CC(=O)N3CCC(N4CC(C#N)C4)CC3)cc2NC(=O)c2cnn3cccnc23)c1 [Example 59, N-[1-[2-[4-(3-cyanoazetidin-1-yl)-1-piperidyl]-2-oxo-ethyl]-3-[2-(difluoromethoxy)-5-methylsulfanyl-phenyl]pyrazol-4-yl]pyrazolo[1,5-a]pyrimidine-3-carboxamide]	15 nM
0.25 nM	0.48 nM	CSc1ccc(OC(F)F)c(-c2nn(CC(=O)N3CCC(N4CCOC[C@@H]4C)CC3)cc2NC(=O)c2cnn3cccnc23)c1 [Example 61, N-[3-[2-(difluoromethoxy)-5-methylsulfanyl-phenyl]-1-[2-[4-[(3S)-3-methylmorpholin-4-yl]-1-piperidyl]-2-oxo-ethyl]pyrazol-4-yl]pyrazolo[1,5-a]pyrimidine-3-carboxamide]	13 nM
0.27 nM	0.38 nM	CSc1ccc(OC(F)F)c(-c2nn(CC(=O)N3CCC(N4CCS(=O)(=O)CC4)CC3)cc2NC(=O)c2cnn3cccnc23)c1 [Example 62, N-[3-[2-(difluoromethoxy)-5-methylsulfanyl-phenyl]-1-[2-[4-(1,1-dioxo-1,4-thiazinan-4-yl)-1-piperidyl]-2-oxo-ethyl]pyrazol-4-yl]pyrazolo[1,5-a]pyrimidine-3-carboxamide]	160 nM
0.2 nM	0.24 nM	CSc1ccc(OC(F)F)c(-c2nn(CC(=O)N3CCN(C4CCSCC4)CC3)cc2NC(=O)c2cnn3cccnc23)c1 [Example 66, N-[3-[2-(difluoromethoxy)-5-methylsulfanyl-phenyl]-1-[2-oxo-2-(4-tetrahydrothiopyran-4-ylpiperazin-1-yl)ethyl]pyrazol-4-yl]pyrazolo[1,5-a]pyrimidine-3-carboxamide]	5 nM
0.19 nM	0.27 nM	CSc1ccc(OC(F)F)c(-c2nn(CC(=O)N3CC=CCC3)cc2NC(=O)c2cnn3cccnc23)c1 [Example 67, N-[3-[2-(difluoromethoxy)-5-methylsulfanyl-phenyl]-1-[2-(3,6-dihydro-2H-pyridin-1-yl)-2-oxo-ethyl]pyrazol-4-yl]pyrazolo[1,5-a]pyrimidine-3-carboxamide]	8.9 nM
